We go through two compounds from ChEMBL document CHEMBL4428125, “8-Substituted 1,3-dimethyltetrahydropyrazino[2,1-f]purinediones: Water-soluble adenosine receptor antagonists and monoamine oxidase B inhibitors” (Bioorg Med Chem, 2016).

The target of assay [1] is T1, Adenosine receptor A2b (Homo sapiens, UniProt P29275).
T1 sequence (P29275 whole entry): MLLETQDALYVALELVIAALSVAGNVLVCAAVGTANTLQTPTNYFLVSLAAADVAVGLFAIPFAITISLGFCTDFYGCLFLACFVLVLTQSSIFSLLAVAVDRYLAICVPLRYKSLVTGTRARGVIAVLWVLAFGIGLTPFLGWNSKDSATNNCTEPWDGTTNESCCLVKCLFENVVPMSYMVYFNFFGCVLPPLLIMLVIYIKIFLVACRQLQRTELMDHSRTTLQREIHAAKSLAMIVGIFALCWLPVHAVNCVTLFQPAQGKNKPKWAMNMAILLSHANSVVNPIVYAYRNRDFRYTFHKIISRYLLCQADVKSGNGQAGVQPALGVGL
In words: Displacement of [3H]PSB-603 from human A2B receptor expressed in CHO cell membrane. The assay is classed as cell membranes.

For assay [2], the target named is T2, Adenosine receptor A3 (Homo sapiens, UniProt P0DMS8).
T2 sequence (P0DMS8 whole entry): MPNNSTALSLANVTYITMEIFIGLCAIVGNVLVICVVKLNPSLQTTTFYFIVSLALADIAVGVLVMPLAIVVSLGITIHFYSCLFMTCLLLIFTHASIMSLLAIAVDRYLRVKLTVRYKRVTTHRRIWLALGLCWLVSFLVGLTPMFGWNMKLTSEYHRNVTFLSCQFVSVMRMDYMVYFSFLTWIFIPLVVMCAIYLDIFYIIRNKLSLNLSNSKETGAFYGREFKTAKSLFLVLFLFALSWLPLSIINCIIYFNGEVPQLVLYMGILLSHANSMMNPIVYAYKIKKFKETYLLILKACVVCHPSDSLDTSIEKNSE
In words: Displacement of [3H]PSB-11 from human A3 receptor expressed in CHO cell membrane by liquid scintillation counting method relative to control. The assay is classed as cell membranes.

The target in assay [3] is Adenosine receptor A2a (Rattus norvegicus, UniProt P30543). Briefly: Displacement of [3H]MSX from A2A receptor in rat brain striatum membranes measured after 30 mins by liquid scintillation counting method. The assay is classed as cell membranes.
Chain of Adenosine receptor A2a (P30543 whole entry): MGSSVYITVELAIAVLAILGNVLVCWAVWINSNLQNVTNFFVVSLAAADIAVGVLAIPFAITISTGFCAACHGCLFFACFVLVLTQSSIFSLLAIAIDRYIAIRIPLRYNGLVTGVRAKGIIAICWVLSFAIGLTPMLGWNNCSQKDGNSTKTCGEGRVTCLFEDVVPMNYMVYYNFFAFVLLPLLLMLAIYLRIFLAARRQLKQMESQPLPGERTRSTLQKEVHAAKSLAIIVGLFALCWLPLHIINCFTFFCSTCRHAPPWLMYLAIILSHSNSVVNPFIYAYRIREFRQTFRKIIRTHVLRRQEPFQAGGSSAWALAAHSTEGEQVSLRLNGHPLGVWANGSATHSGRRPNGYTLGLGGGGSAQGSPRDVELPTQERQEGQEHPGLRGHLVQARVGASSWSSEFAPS
Assay [4] has as its target T3, Amine oxidase [flavin-containing] B (Homo sapiens, UniProt P27338).
T3 sequence (P27338 whole entry): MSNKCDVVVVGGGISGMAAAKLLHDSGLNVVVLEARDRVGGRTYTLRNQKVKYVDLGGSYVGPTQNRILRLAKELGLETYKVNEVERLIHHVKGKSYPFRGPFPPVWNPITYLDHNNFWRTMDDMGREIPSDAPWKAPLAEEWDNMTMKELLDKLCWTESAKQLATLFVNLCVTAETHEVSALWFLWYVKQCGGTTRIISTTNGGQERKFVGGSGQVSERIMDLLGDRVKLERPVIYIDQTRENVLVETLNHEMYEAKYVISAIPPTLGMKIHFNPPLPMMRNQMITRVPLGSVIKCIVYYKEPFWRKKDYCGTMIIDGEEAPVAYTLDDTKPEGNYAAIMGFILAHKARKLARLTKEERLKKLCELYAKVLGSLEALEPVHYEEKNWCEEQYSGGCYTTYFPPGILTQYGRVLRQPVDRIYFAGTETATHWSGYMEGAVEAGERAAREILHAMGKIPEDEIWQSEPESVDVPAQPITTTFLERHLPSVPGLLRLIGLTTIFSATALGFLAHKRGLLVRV
In words: Inhibition of recombinant human MAO-B expressed in baculovirus infected BTI insect cells preincubated for 30 mins followed by addition of p-tyramine as substrate measured over 45 mins by Amplex Red MAO assay.

In assay [5] the target is T4, Adenosine receptor A1 (Homo sapiens, UniProt P30542).
T4 sequence (P30542 whole entry): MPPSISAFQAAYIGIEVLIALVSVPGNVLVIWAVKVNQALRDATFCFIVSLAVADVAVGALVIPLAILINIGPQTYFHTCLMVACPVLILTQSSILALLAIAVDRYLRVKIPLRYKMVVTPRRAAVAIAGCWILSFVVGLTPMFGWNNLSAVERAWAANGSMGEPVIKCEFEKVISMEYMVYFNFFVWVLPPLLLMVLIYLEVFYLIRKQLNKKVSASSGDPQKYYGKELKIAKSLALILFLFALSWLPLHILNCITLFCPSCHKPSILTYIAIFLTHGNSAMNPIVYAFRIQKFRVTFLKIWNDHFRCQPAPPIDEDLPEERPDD
Briefly: Displacement of [3H]CCPA from human A1 receptor expressed in CHO cell membrane by liquid scintillation counting method. The assay is classed as cell membranes.

Assay [6] deals with T5, Amine oxidase [flavin-containing] B (Rattus norvegicus, UniProt P19643).
T5 sequence (P19643 whole entry): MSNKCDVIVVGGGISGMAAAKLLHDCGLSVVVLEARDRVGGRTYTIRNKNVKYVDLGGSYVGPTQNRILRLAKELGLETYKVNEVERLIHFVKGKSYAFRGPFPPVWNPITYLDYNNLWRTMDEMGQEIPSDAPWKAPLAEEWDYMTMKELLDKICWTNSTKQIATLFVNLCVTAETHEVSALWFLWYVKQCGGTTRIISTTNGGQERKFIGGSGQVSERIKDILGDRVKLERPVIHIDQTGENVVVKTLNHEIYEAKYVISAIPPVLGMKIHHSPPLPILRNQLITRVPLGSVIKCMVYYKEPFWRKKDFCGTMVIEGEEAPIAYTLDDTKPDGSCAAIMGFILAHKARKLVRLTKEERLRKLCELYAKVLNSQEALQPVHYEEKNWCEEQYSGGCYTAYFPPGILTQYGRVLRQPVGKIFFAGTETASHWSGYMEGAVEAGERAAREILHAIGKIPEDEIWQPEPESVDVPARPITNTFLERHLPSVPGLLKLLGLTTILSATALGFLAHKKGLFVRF
Briefly: Inhibition of recombinant rat MAO-B preincubated for 30 mins followed by addition of p-tyramine as substrate measured over 45 mins by Amplex Red MAO assay.

Assay [7] addresses T6, Amine oxidase [flavin-containing] A (Homo sapiens, UniProt P21397).
T6 sequence (P21397 whole entry): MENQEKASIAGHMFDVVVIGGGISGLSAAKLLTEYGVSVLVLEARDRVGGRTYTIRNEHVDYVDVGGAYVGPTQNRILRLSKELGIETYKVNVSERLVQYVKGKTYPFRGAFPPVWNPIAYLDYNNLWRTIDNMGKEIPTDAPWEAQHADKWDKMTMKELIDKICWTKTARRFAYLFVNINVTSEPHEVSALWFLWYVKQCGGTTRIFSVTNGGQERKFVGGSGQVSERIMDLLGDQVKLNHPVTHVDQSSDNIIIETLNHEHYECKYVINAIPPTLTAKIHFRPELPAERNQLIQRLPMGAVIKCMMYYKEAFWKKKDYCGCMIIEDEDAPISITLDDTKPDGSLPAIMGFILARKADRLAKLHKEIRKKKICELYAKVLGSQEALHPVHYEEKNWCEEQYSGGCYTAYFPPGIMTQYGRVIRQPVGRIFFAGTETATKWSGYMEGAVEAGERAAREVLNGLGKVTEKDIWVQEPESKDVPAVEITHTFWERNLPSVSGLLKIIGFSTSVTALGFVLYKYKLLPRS
In words: Inhibition of recombinant human MAO-A expressed in baculovirus infected BTI insect cells preincubated for 30 mins followed by addition of p-tyramine as substrate measured over 45 mins by Amplex Red MAO assay.

For the compound `Cn1c(=O)c2c(nc3n2CCN(c2cccc(Cl)c2)C3)n(C)c1=O`, the Ki in assay [1] is over 1000 nM; in assay [2], over 10000 nM; in assay [3], 557 nM; in assay [5], at least 10000 nM. The concentration for half-maximal inhibition (IC50) in assay [4] was 385 nM; in assay [6] it was 251 nM; in assay [7], over 10000 nM.
Turning to `Cn1c(=O)c2c(nc3n2CCN([C@@H]2CCCc4ccccc42)C3)n(C)c1=O`, the Ki in assay [1] is over 300 nM; in assay [2], 14000 nM; in assay [3], 510 nM; in assay [5] it was 393 nM. Further, the IC50 is 210 nM in assay [4], 100 nM in assay [6] and over 10000 nM in assay [7].
